Measured values published in ChEMBL document CHEMBL1201862, “PubChem BioAssay data set” (2004).
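Dose response: 5 concentrations. Exposure: 48 h. Format: 96-well plates. Endpoint: linear interpolation; highest concentration if not reached. Here, GI50 denotes the concentration required for 50% inhibition of growth.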 Calls of active or inactive are those of the source. Rule as the data show it: active = GI50 up to about 1.1 µM and inactive = higher.

Legend:
Assay in all cases: NCI-60 cell line screen, 48 h
[1] = test system: SK-MEL-28
[2] = test system: SNB-19
[3] = test system: UACC-257
[4] = test system: SF-295
[5] = test system: SNB-75
[6] = test system: CAKI-1
[7] = test system: UO-31
[8] = test system: U-251
[9] = test system: OVCAR-8
[10] = test system: HOP-62
[11] = test system: SW-620
[12] = test system: SN12C
[13] = test system: SK-OV-3
[14] = test system: HCC 2998
[15] = test system: CCRF-CEM
[16] = test system: K562
[17] = test system: RXF 393
[18] = test system: A549
[19] = test system: OVCAR-4
[20] = test system: M14

SMILES | GI50 [1] | GI50 [2] | GI50 [3] | GI50 [4] | GI50 [5] | GI50 [6] | GI50 [7] | GI50 [8] | GI50 [9] | GI50 [10] | GI50 [11] | GI50 [12] | GI50 [13] | GI50 [14] | GI50 [15] | GI50 [16] | GI50 [17] | GI50 [18] | GI50 [19] | GI50 [20]
C=CCC(O[Si](C)(C)C(C)(C)C)c1cc(O[Si](C)(C)C(C)(C)C)ccc1OC (configuration not stated) | > 81.8 µM (inactive) | > 62.2 µM (inactive) | > 79.4 µM (inactive) | > 71.8 µM (inactive) | > 55.6 µM (inactive) | 40.7 µM (inactive) | > 82 µM (inactive) | > 71.6 µM (inactive) | > 81.3 µM (inactive) | > 100 µM (inactive) | > 100 µM (inactive) | > 87.3 µM (inactive) | > 62.4 µM (inactive) | > 100 µM (inactive) | > 100 µM (inactive) | > 100 µM (inactive) | 58.9 µM (inactive) | > 64.1 µM (inactive) | > 67.3 µM (inactive) | 
CN1c2ccccc2C(=O)NC12CCN(CCCC(=O)c1ccc(F)cc1)CC2 | 70.1 µM (inactive) |  | 29 µM (inactive) | 73.5 µM (inactive) | 71.6 µM (inactive) | 82.4 µM (inactive) | 80.4 µM (inactive) | > 100 µM (inactive) | > 100 µM (inactive) | > 100 µM (inactive) | 50.4 µM (inactive) | > 100 µM (inactive) | > 100 µM (inactive) | 19.7 µM (inactive) | 84.7 µM (inactive) | 25.9 µM (inactive) | 62.8 µM (inactive) | > 100 µM (inactive) | 87.3 µM (inactive) | 15.5 µM (inactive)
COC(=O)CCC(C)C1CCC2C3CCC4CC5CCC4(C)C3(O5)C(Br)C(Br)C12C (configuration not stated) | > 100 µM (inactive) | > 100 µM (inactive) | > 100 µM (inactive) | > 100 µM (inactive) | > 100 µM (inactive) | > 100 µM (inactive) | > 100 µM (inactive) | > 100 µM (inactive) | > 100 µM (inactive) | > 100 µM (inactive) | > 100 µM (inactive) | > 100 µM (inactive) | > 100 µM (inactive) | > 100 µM (inactive) |  | > 100 µM (inactive) | > 100 µM (inactive) | > 100 µM (inactive) | > 100 µM (inactive) | > 100 µM (inactive)
CN1CCN(c2cc(-c3cc4ccccc4o3)oc(=O)c2C#N)CC1 | > 100 µM (inactive) | > 100 µM (inactive) | > 100 µM (inactive) | > 100 µM (inactive) | 80.4 µM (inactive) | 36.1 µM (inactive) | > 100 µM (inactive) | > 100 µM (inactive) | 57.7 µM (inactive) |  | > 100 µM (inactive) | 53.3 µM (inactive) |  | > 100 µM (inactive) | 71.4 µM (inactive) | 66.5 µM (inactive) | 72.6 µM (inactive) | 70.8 µM (inactive) | 93.5 µM (inactive) | > 100 µM (inactive)
O=c1cc(-c2cc(O)c(O)c(-c3c(O)cc4oc(-c5ccc(O)c(O)c5)cc(=O)c4c3O)c2)oc2cc(O)cc(O)c12 | > 25 µM (inactive) |  | > 25 µM (inactive) | > 25 µM (inactive) | 24.9 µM (inactive) | > 25 µM (inactive) | > 25 µM (inactive) | 19.2 µM (inactive) | > 25 µM (inactive) | > 25 µM (inactive) | > 25 µM (inactive) | > 25 µM (inactive) | > 25 µM (inactive) | > 25 µM (inactive) | > 25 µM (inactive) | > 25 µM (inactive) | > 25 µM (inactive) | > 25 µM (inactive) | > 25 µM (inactive) | > 25 µM (inactive)
CC(=O)OC1CC2(O)C(CCC3(C)C(c4ccc(=O)oc4)CCC32O)C2(C)C1=CC(O)C1OC12 (configuration not stated) | 0.0621 µM (active) | 0.118 µM (active) | 0.0441 µM (active) | 0.0366 µM (active) | 0.0624 µM (active) | 0.0324 µM (active) | 0.0713 µM (active) | 0.0762 µM (active) | 0.0349 µM (active) | 0.05 µM (active) | 0.0387 µM (active) | 0.0349 µM (active) | 0.0843 µM (active) | 0.114 µM (active) | 0.0267 µM (active) | 0.0467 µM (active) | 0.0331 µM (active) | 0.028 µM (active) | 0.0457 µM (active) | 
C=CCc1cccc(/C=N\N/C(N)=N/O)c1O | 11.9 µM (inactive) | 11.5 µM (inactive) | 4.62 µM (inactive) | 2.31 µM (inactive) | 4.43 µM (inactive) | 3.46 µM (inactive) | 1.45 µM (inactive) | 4.51 µM (inactive) | 3.89 µM (inactive) | 2.28 µM (inactive) | 6.52 µM (inactive) | 4.8 µM (inactive) | 4.84 µM (inactive) | 3.21 µM (inactive) | 2.07 µM (inactive) | 3.3 µM (inactive) | 2.99 µM (inactive) | 3.61 µM (inactive) | 5.16 µM (inactive) | 
